Test results from BindingDB's records for PubMed 11259544 (Florida State University, 2001).

Molecular target: Cannabinoid receptor 1 (Taeniopygia guttata, UniProt P56971)
Sequence (P56971 whole entry): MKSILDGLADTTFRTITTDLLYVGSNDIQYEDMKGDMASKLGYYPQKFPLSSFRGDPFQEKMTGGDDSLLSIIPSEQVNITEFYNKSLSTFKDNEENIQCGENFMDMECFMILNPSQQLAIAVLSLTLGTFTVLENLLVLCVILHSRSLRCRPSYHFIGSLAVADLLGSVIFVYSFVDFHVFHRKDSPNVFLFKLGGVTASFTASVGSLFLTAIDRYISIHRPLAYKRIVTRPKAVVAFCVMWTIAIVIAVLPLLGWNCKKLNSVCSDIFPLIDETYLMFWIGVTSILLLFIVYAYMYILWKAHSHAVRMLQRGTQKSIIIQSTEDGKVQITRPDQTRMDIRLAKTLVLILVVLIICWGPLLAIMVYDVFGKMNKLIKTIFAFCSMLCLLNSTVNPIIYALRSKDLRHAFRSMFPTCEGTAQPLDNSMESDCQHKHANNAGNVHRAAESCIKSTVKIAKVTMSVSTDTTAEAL

`Cc1c(C(=O)c2cccc3ccccc23)c2cccc3c2n1[C@H](CN1CCOCC1)CO3` [WIN55212-2] showed a Ki of 0.0633 µM.

`CCCCCCC(C)(C)c1ccc([C@H]2C[C@@H](O)CC[C@@H]2CCCO)c(O)c1` [CP-56667 [(+)-AC],XV] gave a Ki of 0.00592 µM.

With `Cc1c(C(=O)NN2CCCCC2)nn(-c2ccc(Cl)cc2Cl)c1-c1ccc(Cl)cc1` [SR141716] the Ki was 0.0893 µM.

`CCCCCCC(C)(C)c1cc(O)c2c(c1)OC(C)(C)[C@@H]1CC=C(CO)CC21` (stereo partly drawn) [(R)-3-(1,1-Dimethyl-heptyl)-9-hydroxymethyl-6,6-dimethyl-6a,7,10,10a-tetrahydro-6H-benzo[c]chromen-1-ol] was tested, and the Ki was 0.00232 µM.

In the case of `CCCCC/C=C\C/C=C\C/C=C\C/C=C\CCCCCC(=O)NCCO`, the Ki is reported as 2.79 µM.

For `CCCCC/C=C\C/C=C\C/C=C\C/C=C\CCCC(=O)NC(C)CO` (configuration not stated), the Ki was 0.166 µM.

`CC(=O)Oc1cc(OC(C)CCCc2ccccc2)cc2c1C1CC(O)CCC1C(C)N2` (configuration not stated) [NSC_107822] was tested, and the Ki was 0.00824 µM.
